Data published in US20070128217A1 (priority 2003, published 2007).

How the values were obtained:
[1] = tested on: antibodies in sera from SARS patients (sera 1a, 1b, 2, 6, 37, 62, London, SARS-yellow, SARS-green); assay type: binding, human; parameters: Binding of serum 6 to linear peptides of protein X1 of SARS-CoV Urbani / Binding of serum 37 to linear peptides of protein X1 of SARS-CoV Urbani / Binding of serum 6 to looped/cyclic peptide (PEPSCAN-ELISA) / Binding of serum 37 to looped/cyclic peptide (PEPSCAN-ELISA) / Binding of serum 37 to looped/cyclic peptides of protein X1 of SARS-CoV Urbani / Binding of serum 6 to linear peptides of protein X2 / Binding of serum 37 to linear peptides of protein X2 / Binding of serum 37 to looped/cyclic peptides of protein X2 of SARS-CoV Urbani / Binding of serum 6 to linear peptides of protein M of SARS-CoV Urbani / Binding of serum 37 to linear peptides of protein M of SARS-CoV Urbani / Binding of serum 6 to looped/cyclic peptides of protein M of SARS-CoV Urbani / Binding of serum 37 to looped/cyclic peptides of protein M of SARS-CoV Urbani / Binding of serum 6 to linear peptides of protein X3 of SARS-CoV Urbani / Binding of serum 37 to linear peptides of protein X3 of SARS-CoV Urbani / Binding of serum 37 to looped/cyclic peptides of protein X3 of SARS-CoV Urbani / Binding of serum 6 to linear peptides of protein X4 of SARS-CoV Urbani / Binding of serum 37 to linear peptides of protein X4 of SARS-CoV Urbani / Binding of serum 37 to looped/cyclic peptides of protein X4 of SARS-CoV Urbani / Binding of serum 6 to linear peptides of protein X5 of SARS-CoV Urbani / Binding of serum 37 to linear peptides of protein X5 of SARS-CoV Urbani / Binding of serum 37 to looped/cyclic peptides of protein X5 of SARS-CoV Urbani / Binding of serum 6 to linear peptides of protein N of SARS-CoV Urbani / Binding of serum 37 to linear peptides of protein N of SARS-CoV Urbani / Binding of serum 6 to linear peptide (PEPSCAN-ELISA) / Binding of serum 1a to looped/cyclic peptides of protein N of SARS-CoV Urbani / Binding of serum 1b to looped/cyclic peptides of protein N of SARS-CoV Urbani / Binding of serum 2 to looped/cyclic peptides of protein N of SARS-CoV Urbani / Binding of serum 6 to looped/cyclic peptides of protein N of SARS-CoV Urbani / Binding of serum 37 to looped/cyclic peptides of protein N of SARS-CoV Urbani / Binding of serum 62 to looped/cyclic peptides of protein N of SARS-CoV Urbani / Binding of serum London to looped/cyclic peptides of protein N of SARS-CoV Urbani / Binding of serum SARS-green to looped/cyclic peptides of protein N of SARS-CoV Urbani: unit not given here
[2] = tested on: control sera (pooled serum of ten healthy LUMC hospital workers; commercial negative donor pooled serum from the Dutch bloodbank); assay type: binding, human; parameters: Binding of Control serum LUMC to linear peptides / Binding of Control serum Blood-bank to linear peptides / Binding of Control serum LUMC to looped peptides / Binding of Control Serum Blood-Bank to Looped peptides / Binding of Control serum LUMC to linear peptides of the protein M of SARS-CoV Urbani / Binding of Control serum Blood-bank to linear peptides of the protein M of SARS-CoV Urbani / Binding of Control serum LUMC to looped peptides of the protein M of SARS-CoV Urbani / Binding of Control Serum Blood-Bank to Looped peptides of the protein M of SARS-CoV Urbani: unit not given here
[3] = tested on: rabbit serum obtained by immunizing a rabbit with the SARS-CoV strain Frankfurt 1; assay type: binding; parameters: Binding of a rabbit serum to linear peptides / Binding of a rabbit serum to looped peptides / Rabbit serum linear peptides / Rabbit serum looped peptides / Binding of a rabbit serum to linear peptides of protein N of SARS-CoV Urbani (Rabbit serum linear peptides) / Binding of a rabbit serum to looped/cyclic peptides of protein N of SARS-CoV Urbani (Rabbit serum looped peptides): unit not given here

NKRWQLALYKGFQFI was tested, and the “Binding of serum 1a to linear peptides of protein X1 of SARS-CoV Urbani” value [1] was 0.7, the “Binding of serum 1a to looped/cyclic peptide (PEPSCAN-ELISA)” value [1] was 0.6 and the “Binding of serum 1b to linear peptides of protein X1 of SARS-CoV Urbani” value [1] was 0.5. The “Binding of serum 1b to looped/cyclic peptide (PEPSCAN-ELISA)” value [1] was 0.4, the “Binding of serum 2 to linear peptides of protein X1 of SARS-CoV Urbani” value [1] was 0.7 and the “Binding of serum 2 to looped/cyclic peptide (PEPSCAN-ELISA)” value [1] was 0.5. For the same sequence, the “Binding of serum 6 to linear peptides of protein X1 of SARS-CoV Urbani” value [1] was 0.8, the “Binding of serum 6 to looped/cyclic peptide (PEPSCAN-ELISA)” value [1] was 0.5 and the “Binding of serum 37 to linear peptides of protein X1 of SARS-CoV Urbani” value [1] was 0.6. The “Binding of serum 37 to looped/cyclic peptide (PEPSCAN-ELISA)” value [1] was 0.6, the “Binding of serum 62 to linear peptides of protein X1 of SARS-CoV Urbani” value [1] was 0.6 and the “Binding of serum 62 to looped/cyclic peptide (PEPSCAN-ELISA)” value [1] was 0.7. The “Binding of serum London to linear peptides of protein X1 of SARS-CoV Urbani” value [1] was 0.3, the “Binding of serum London to looped/cyclic peptide (PEPSCAN-ELISA)” value [1] was 0.4 and the “Binding of serum SARS-green to linear peptides of protein X1 of SARS-CoV Urbani” value [1] was 0.3. The “Binding of serum SARS-green to looped/cyclic peptide (PEPSCAN-ELISA)” value [1] was 0.2, the “Binding of serum SARS-yellow to linear peptides of protein X1 of SARS-CoV Urbani” value [1] was 0.3 and the “Binding of serum SARS-yellow to looped/cyclic peptide (PEPSCAN-ELISA)” value [1] was 0.5. The “Binding of Control Serum Blood-Bank to Looped peptides” value [2] was 0.7, the “Binding of Control serum Blood-bank to linear peptides” value [2] was 0.6 and the “Binding of Control serum LUMC to linear peptides” value [2] was 0.6. For the same sequence, the “Binding of Control serum LUMC to looped peptides” value [2] was 0.7 and the “Recognition of the peptide by the rabbit serum” value [3] was “recognized”.
With LFLIVAALVFLILCF the “Binding of serum 1a to linear peptides of protein X4 of SARS-CoV Urbani” value [1] was 0.6, the “Binding of serum 1a to looped/cyclic peptides of protein X4 of SARS-CoV Urbani” value [1] was 0.8 and the “Binding of serum 1b to linear peptides of protein X4 of SARS-CoV Urbani” value [1] was 0.5. For the same sequence, the “Binding of serum 1b to looped/cyclic peptides of protein X4 of SARS-CoV Urbani” value [1] was 0.4, the “Binding of serum 2 to linear peptides of protein X4 of SARS-CoV Urbani” value [1] was 0.3 and the “Binding of serum 2 to looped/cyclic peptides of protein X4 of SARS-CoV Urbani” value [1] was 0.7. For the same sequence, the “Binding of serum 6 to linear peptides of protein X4 of SARS-CoV Urbani” value [1] was 0.4, the “Binding of serum 6 to looped/cyclic peptides of protein X4 of SARS-CoV Urbani” value [1] was 0.3 and the “Binding of serum 37 to linear peptides of protein X4 of SARS-CoV Urbani” value [1] was 0.6. The “Binding of serum 37 to looped/cyclic peptides of protein X4 of SARS-CoV Urbani” value [1] was 0.5, the “Binding of serum 62 to linear peptides of protein X4 of SARS-CoV Urbani” value [1] was 0.6 and the “Binding of serum 62 to looped/cyclic peptides of protein X4 of SARS-CoV Urbani” value [1] was 0.5. The “Binding of serum London to linear peptides of protein X4 of SARS-CoV Urbani” value [1] was 0.7, the “Binding of serum London to looped/cyclic peptides of protein X4 of SARS-CoV Urbani” value [1] was 0.2 and the “Binding of serum SARS-green to linear peptides of protein X4 of SARS-CoV Urbani” value [1] was 0.6. The “Binding of serum SARS-green to looped/cyclic peptides of protein X4 of SARS-CoV Urbani” value [1] was 0.4, the “Binding of serum SARS-yellow to linear peptides of protein X4 of SARS-CoV Urbani” value [1] was 0.7 and the “Binding of serum SARS-yellow to looped/cyclic peptides of protein X4 of SARS-CoV Urbani” value [1] was 0.5. For the same sequence, the “Binding of Control Serum Blood-Bank to Looped peptides” value [2] was 0.7, the “Binding of Control serum Blood-bank to linear peptides” value [2] was 0.5 and the “Binding of Control serum LUMC to linear peptides” value [2] was 0.4. The “Binding of Control serum LUMC to looped peptides” value [2] was 0.4, the “Rabbit serum linear peptides” value [3] was 0.3 and the “Rabbit serum looped peptides” value [3] was 0.4.
LLEQWNLVIGFLFLA was tested, and the “Binding of serum 1a to linear peptides of protein M of SARS-CoV Urbani” value [1] was 0.7, the “Binding of serum 1a to looped/cyclic peptides of protein M of SARS-CoV Urbani” value [1] was 0.5 and the “Binding of serum 1b to linear peptides of protein M of SARS-CoV Urbani” value [1] was 0.6. For the same sequence, the “Binding of serum 1b to looped/cyclic peptides of protein M of SARS-CoV Urbani” value [1] was 0.2, the “Binding of serum 2 to linear peptides of protein M of SARS-CoV Urbani” value [1] was 0.4 and the “Binding of serum 2 to looped/cyclic peptides of protein M of SARS-CoV Urbani” value [1] was 0.4. The “Binding of serum 6 to linear peptides of protein M of SARS-CoV Urbani” value [1] was 0.2, the “Binding of serum 6 to looped/cyclic peptides of protein M of SARS-CoV Urbani” value [1] was 0.4 and the “Binding of serum 37 to linear peptides of protein M of SARS-CoV Urbani” value [1] was 0.4. For the same sequence, the “Binding of serum 37 to looped/cyclic peptides of protein M of SARS-CoV Urbani” value [1] was 0.4, the “Binding of serum 62 to linear peptides of protein M of SARS-CoV Urbani” value [1] was 0.4 and the “Binding of serum 62 to looped/cyclic peptides of protein M of SARS-CoV Urbani” value [1] was 0.4. For the same sequence, the “Binding of serum London to linear peptides of protein M of SARS-CoV Urbani” value [1] was 0.3, the “Binding of serum London to looped/cyclic peptides of protein M of SARS-CoV Urbani” value [1] was 0.2 and the “Binding of serum SARS-green to linear peptides of protein M of SARS-CoV Urbani” value [1] was 0.3. For the same sequence, the “Binding of serum SARS-green to looped/cyclic peptides of protein M of SARS-CoV Urbani” value [1] was 0.2, the “Binding of serum SARS-yellow to linear peptides of protein M of SARS-CoV Urbani” value [1] was 0.2 and the “Binding of serum SARS-yellow to looped/cyclic peptides of protein M of SARS-CoV Urbani” value [1] was 0.4. The “Binding of Control Serum Blood-Bank to Looped peptides of the protein M of SARS-CoV Urbani” value [2] was 0.2, the “Binding of Control serum Blood-bank to linear peptides of the protein M of SARS-CoV Urbani” value [2] was 0.5 and the “Binding of Control serum LUMC to linear peptides of the protein M of SARS-CoV Urbani” value [2] was 0.4. The “Binding of Control serum LUMC to looped peptides of the protein M of SARS-CoV Urbani” value [2] was 0.5, the “Rabbit serum linear peptides” value [3] was 0.6 and the “Rabbit serum looped peptides” value [3] was 0.0.
